Source: US20070123546A1, “2-amino-7,8-dihydro-6H-pyrido[4,3-d]pyrimidin-5-ones” (Chiron Corporation, priority 2005, published 2007)

The compounds below were run against His-tagged N-terminal ATP binding domain (amino acid residues 9-236) of HSP90α (Homo sapiens, UniProt P07900) (assay: HSP90 inhibitor binding potency: TRF competition binding assay). Settings: Table 3; competition with biotinylated radicicol.
Summary of the method: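 His-tagged HSP90α N-domain (residues 9-236) incubated 2 h at room temperature with biotinylated radicicol and increasing compound in 50 mM HEPES, 6 mM MgCl2, 20 mM KCl, 0.1% BSA. Bound tracer captured on streptavidin plates, detected with europium anti-His antibody by time-resolved fluorescence; IC50 derived.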
For `COc1nc(-c2cc(F)ccc2[C@H]2Cc3nc(N)nc(C)c3C(=O)N2Cc2ccc(F)cc2)cnc1N` [Compound 162, (R)-2-Amino-7-[2-(5-amino-6-methoxy-pyrazin-2-yl)-4-fluoro-phenyl]-6-(4-fluoro-benzyl)-4-methyl-7,8-dihydro-6H-pyrido[4,3-d]pyrimidin-5-one], the IC50 was under 10 µM.
`COc1nc(-c2cc(F)ccc2[C@H]2Cc3nc(N)nc(C)c3C(=O)N2CC(C)C)cnc1N` [Compound 163, (R)-2-Amino-7-[2-(5-amino-6-methoxy-pyrazin-2-yl)-4-fluoro-phenyl]-6-isobutyl-4-methyl-7,8-dihydro-6H-pyrido[4,3-d]pyrimidin-5-one] was tested, and the IC50 was under 10 µM.
`COc1cncc(-c2cc(F)ccc2[C@H]2Cc3nc(N)nc(C)c3C(=O)N2Cc2cccnc2)n1` [Compound 164, (R)-2-Amino-7-[4-fluoro-2-(6-methoxy-pyrazin-2-yl)-phenyl]-4-methyl-6-pyridin-3-ylmethyl-7,8-dihydro-6H-pyrido[4,3-d]pyrimidin-5-one] gave an IC50 of under 10 µM.
In the case of `Cc1nc(N)nc2c1C(=O)N(CCCNC(=O)OC(C)(C)C)[C@@H](c1ccc(F)cc1Br)C2` [Compound 165, {3-[(R)-2-Amino-7-(2-bromo-4-fluoro-phenyl)-4-methyl-5-oxo-7,8-dihydro-5H-pyrido[4,3-d]pyrimidm-6-yl]-propyl}-carbamic acid tert-butyl ester], the IC50 is reported as over 10 µM.
In the case of `Cc1nc(N)nc2c1C(=O)N(CCCN)[C@@H](c1ccc(F)cc1Br)C2` [Compound 166, (R)-2-Amino-6-(3-amino-propyl)-7-(2-bromo-4-fluoro-phenyl)-4-methyl-7,8-dihydro-6H-pyrido[4,3-d]pyrimidin-5-one], the IC50 is reported as over 10 µM.
`Cc1nc(N)nc2c1C(=O)N(CCCNC(=O)OC(C)(C)C)[C@@H](c1ccc(F)cc1-c1cccnc1)C2` [Compound 167, {3-[(R)-2-Amino-7-(4-fluoro-2-pyridin-3-yl-phenyl)-4-methyl-5-oxo-7,8-dihydro-5H-pyrido[4,3-d]pyrimidin-6-yl]-propyl}-carbamic acid tert-butyl ester] showed an IC50 of under 10 µM.
For `Cc1nc(N)nc2c1C(=O)N(CCCN)[C@@H](c1ccc(F)cc1-c1cccnc1)C2` [Compound 168, (R)-2-Amino-6-(3-amino-pnlpropyl)-7-(4-fluoro-2-pyridin-3-yl-phenyl)-4-methyl-7,8-dihydro-6H-pyrido[4,3-d]pyrimidin-5-one], the IC50 was under 10 µM.
`Cc1nc(N)nc2c1C(=O)N(CCCNC(=O)OC(C)(C)C)[C@@H](c1ccc(F)cc1-c1cccnc1F)C2` [Compound 169, (3-{(R)-2-Amino-7-[4-fluoro-2-(2-fluoro-pyridin-3-yl)-phenyl]-4-methyl-5-oxo-7,8-dihydro-5H-pyrido[4,3-d]pyrimidin-6-yl}-propyl)-carbamic acid tert-butyl ester] gave an IC50 of under 10 µM.
Work on `Cc1nc(N)nc2c1C(=O)N(CCCN)[C@@H](c1ccc(F)cc1-c1cccnc1F)C2` [Compound 170, (R)-2-Amino-6-(3-amino-propyl)-7-[4-fluoro-2-(2-fluoro-pyridin-3-yl)-phenyl]-4-methyl-7,8-dihydro-6H-pyrido[4,3-d]pyrimidin-5-one] yielded an IC50 of over 10 µM.
`COc1cncc(-c2cc(F)ccc2[C@H]2Cc3nc(N)nc(C)c3C(=O)N2CCCN)n1` [Compound 171, (R)-2-Amino-6-(3-amino-propyl)-7-[4-fluoro-2-(6-methoxy-pyrazin-2-yl)-phenyl]-4-methyl-7,8-dihydro-6H-pyrido[4,3-d]pyrimidin-5-one] was tested, and the IC50 was under 10 µM.
In the case of `COc1cccc(-c2scnc2[C@H]2Cc3nc(N)nc(C)c3C(=O)N2)n1` [Compound 172, (R)-2-Amino-7-[5-(6-methoxy-pyridin-2-yl)-thiazol-4-yl]-4-methyl-7,8-dihydro-6H-pyrido[4,3-d]pyrimidin-5-one], the IC50 is reported as under 10 µM.

Same assay, conditions: Table 4; competition with biotinylated radicicol
`CCOc1nc(-c2cc(F)ccc2[C@H]2Cc3nc(N)nc(C)c3C(=O)N2)ncc1F` [Compound 174, (R)-2-Amino-7-[2-(4-ethoxy-5-fluoro-pyrunidin-2-yl)-4-fluoro-phenyl]-4-methyl-7,8-dihydro-6H-pyrido[4,3-d]pyrimidin-5-one] gave an IC50 of under 10 µM.
With `COc1cncc(-c2cc(F)ccc2[C@H]2Cc3nc(N)ncc3C(=O)N2)n1` [Compound 175, (R)-2-Amino-7-[4-fluoro-2-(6-methoxy-pyrazin-2-yl)-phenyl]-7,8-dihydro-6H-pyrido[4,3-d]pyrimidin-5-one] the IC50 was under 10 µM.
`COc1ccccc1-c1cc(F)ccc1[C@H]1Cc2nc(N)ncc2C(=O)N1` [Compound 176, (R)-2-Amino-7-(5-fluoro-2′-methoxy-biphenyl-2-yl)-7,8-dihydro-6H-pyrido[4,3-d]pyrimidm-5-one] showed an IC50 of under 10 µM.
`COc1ccc(F)cc1-c1cc(F)ccc1[C@H]1Cc2nc(N)ncc2C(=O)N1` [Compound 177, (R)-2-Amino-7-(5,5′-difluoro-2′-methoxy-biphenyl-2-yl)-7,8-dihydro-6H-pyrido[4,3-d]pyrimidin-5-one] was tested, and the IC50 was under 10 µM.
`COc1cc(F)ccc1-c1cc(F)ccc1[C@H]1Cc2nc(N)ncc2C(=O)N1` [Compound 178] was tested, and the IC50 was under 10 µM.
Compound `COc1ccc(-c2cc(F)ccc2[C@H]2Cc3nc(N)ncc3C(=O)N2)cc1OC` [Compound 179, (R)-2-Amino-7-(5-fluoro-3′,4′-dimethoxy-biphenyl-2-yl)-7,8-dihydro-6H-pyrido[4,3-d]pyrimidin-5-one] has an IC50 of at least 10 µM.
`Cc1cccc(-c2cc(F)ccc2[C@H]2Cc3nc(N)ncc3C(=O)N2)c1` [Compound 180, (R)-2-Amino-7-(5-fluoro-3′-methyl-biphenyl-2-yl)-7,8-dihydro-6H-pyrido[4,3-d]pyrimidin-5-one] was tested, and the IC50 was under 10 µM.
Compound `Cc1ccccc1-c1cc(F)ccc1[C@H]1Cc2nc(N)ncc2C(=O)N1` [Compound 181, (R)-2-Amino-7-(5-fluoro-2′-methyl-biphenyl-2-yl)-7,8-dihydro-6H-pyrido[4,3-d]pyrimidin-5-one] has an IC50 of under 10 µM.
`Cc1ccc(-c2cc(F)ccc2[C@H]2Cc3nc(N)ncc3C(=O)N2)cc1` [Compound 182, (R)-2-Amino-7-(5-fluoro-4′-methyl-biphenyl-2-yl)-7,8-dihydro-6H-pyrido[4,3-d]pyrimidin-5-one] showed an IC50 of under 10 µM.
For `Cc1cc(F)ccc1-c1cc(F)ccc1[C@H]1Cc2nc(N)ncc2C(=O)N1` [Compound 183, (R)-2-Amino-7-(5,4′-difluoro-2′-methyl-biphenyl-2-yl)-7,8-fihydro-6H-pyrido[4,3-d]pyrimidm-5-one], the IC50 was under 10 µM.
With `Cc1nc(N)nc2c1C(=O)N[C@@H](c1ccccc1Br)C2` [Compound 184, (R)-2-Amino-7-(2-bromo-phenyl)-4-methyl-7,8-dihydro-6H-pyrido[4,3-d]pyrimidin-5-one] the IC50 was at least 10 µM.
`COc1cnc(-c2cc(F)ccc2[C@H]2Cc3nc(N)nc(C)c3C(=O)N2)nc1OC` [Compound 185, (R)-2-Amino-7-[2-(4,5-dimethoxy-pyrimidin-2-yl)-4-fluoro-phenyl]-4-methyl-7,8-dihydro-6H-pyrido[4,3-d]pyrimidin-5-one] was tested, and the IC50 was under 10 µM.
`COc1cncc(-c2scnc2[C@H]2Cc3nc(N)nc(C)c3C(=O)N2)n1` [Compound 186, (R)-2-Amino-7-[5-(6-methoxy-pyrazin-2-yl)-thiazol-4-yl]-4-methyl-7,8-dihydro-6H-pyrido[4,3-d]pyrimidin-5-one] showed an IC50 of under 10 µM.
`CCOc1cccc(-c2cc(F)ccc2[C@H]2Cc3nc(N)nc(C)c3C(=O)N2)n1` [Compound 187, (R)-2-Amino-7-[2-(6-ethoxy-pyridin-2-yl)-4-fluoro-phenyl]-4-methyl-7,8-dihydro-6H-pyrido[4,3-d]pyrimidin-5-one] gave an IC50 of under 10 µM.
For `COc1nc(-c2ccccc2[C@H]2Cc3nc(N)nc(C)c3C(=O)N2)cs1` [Compound 188, (R)-2-Amino-7-[2-(2-methoxy-thiazol-4-yl)-phenyl]-4-methyl-7,8-dihydro-6H-pyrido[4,3-d]pyrimidin-5-one], the IC50 was under 10 µM.
`COc1ncc(-c2ccccc2[C@H]2Cc3nc(N)nc(C)c3C(=O)N2)nc1OC` [Compound 189, (R)-2-Amino-7-[2-(5,6-dimethoxy-pyrazin-2-yl)-phenyl]-4-methyl-7,8-dihydro-6H-pyrido[4,3-d]pyrimidin-5-one] showed an IC50 of under 10 µM.
`COc1nc(-c2cc(F)ccc2[C@H]2Cc3nc(N)nc(C)c3C(=O)N2)ccc1N` [Compound 190, (R)-2-Amino-7-[2-(5-amino-6-methoxy-pyridin-2-yl)-4-fluoro-phenyl]-4-methyl-7,8-dihydro-6H-pyrido[4,3-d]pyrimidin-5-o[…]ne] showed an IC50 of under 10 µM.
Compound `Nc1ncc2c(n1)C[C@H](c1ccc(F)cc1-c1cccnc1)NC2=O` [Compound 191, (R)-2-Amino-7-(4-fluoro-2-pyridin-3-yl-phenyl)-7,8-dihydro-6H-pyrido[4,3-d]pyrimidin-5-one] has an IC50 of under 10 µM.
`COc1ncc(-c2cc(F)ccc2[C@H]2Cc3nc(N)ncc3C(=O)N2)c(OC)n1` [Compound 192, (R)-2-Amino-7-[2-(2,4-dimethoxy-pyrimidin-5-yl)-4-fluoro-phenyl]-7,8-dihydro-6H-pyrido[4,3-d]pyrimidin-5-one] was tested, and the IC50 was at least 10 µM.
With `CCOc1ccnc(-c2cc(F)ccc2[C@H]2Cc3nc(N)nc(C)c3C(=O)N2)n1` [Compound 193, (R)-2-Amino-7-[2-(4-ethoxy-pyrimidin-2-yl)-4-fluoro-phenyl]-4-methyl-7,8-dihydro-6H-pyrido[4,3-d]pyrimidin-5-one] the IC50 was under 10 µM.
Compound `COc1cncc(-c2ccccc2[C@H]2Cc3nc(N)nc(C)c3C(=O)N2)n1` [Compound 194, (R)-2-Amino-7-[2-(6-methoxy-pyrazin-2-yl)-phenyl]-4-methyl-7,8-dihydro-6H-pyrido[4,3-d]pyrimidin-5-one] has an IC50 of under 10 µM.
With `COc1ccnc(-c2cc(F)ccc2[C@H]2Cc3nc(N)nc(C)c3C(=O)N2)n1` [Compound 195, (R)-2-Amino-7-[4-fluoro-2-(4-methoxy-pyrimidin-2-yl)-phenyl]-4-methyl-7,8-dihydro-6H-pyrido[4,3-d]pyrimidin-5-one] the IC50 was under 10 µM.
For `CCOc1nc(-c2cc(F)ccc2[C@H]2Cc3nc(N)nc(C)c3C(=O)N2)cnc1N` [Compound 196, (R)-2-Amino-7-[2-(5-amino-6-ethoxy-pyrazin-2-yl)-4-fluoro-phenyl]-4-methyl-7,8-dihydro-6H-pyrido[4,3-d]pyrimidin-5-one], the IC50 was under 10 µM.
